Reference: the supplement of paper PMC10307832

Columns and labels:
Assay in all cases: relative viability (nuclei count vs DMSO), 5 days (fraction); higher = more cells survive
A-427 = tested on: A-427
Procedure, shortened: (§1)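 After 5 days of treatment, lung cancer cells in 1536-well plates were fixed and stained in a single step (final 0.05% Triton X-100, 1% formaldehyde, 1 ug/ml Hoechst) and their nuclei counted on 4× images. Treatment had been applied by pin tool the day after seeding as one drug alone or as a fixed anchor-drug dose with five library-drug doses (not always all listed) in √10 steps. Relative viability is the nuclei count of treated wells divided by that of vehicle wells, and values are medians of duplicate plates.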

HCC-15 = tested on: HCC-15
Procedure, shortened: as §1

HCC-78 = tested on: HCC-78
Procedure, shortened: as §1

HOP-62 = tested on: HOP-62
Procedure, shortened: as §1

LC-2-ad = tested on: LC-2-ad
Procedure, shortened: as §1

LOU-NH91 = tested on: LOU-NH91
Procedure, shortened: as §1

LXF-289 = tested on: LXF-289
Procedure, shortened: as §1

NCI-H1734 = tested on: NCI-H1734
Procedure, shortened: as §1

NCI-H1755 = tested on: NCI-H1755
Procedure, shortened: as §1

NCI-H1792 = tested on: NCI-H1792
Procedure, shortened: as §1

NCI-H1915 = tested on: NCI-H1915
Procedure, shortened: as §1

NCI-H1975 = tested on: NCI-H1975
Procedure, shortened: as §1

NCI-H2126 = tested on: NCI-H2126
Procedure, shortened: as §1

NCI-H2228 = tested on: NCI-H2228
Procedure, shortened: as §1

NCI-H2347 = tested on: NCI-H2347
Procedure, shortened: as §1

NCI-H460 = tested on: NCI-H460
Procedure, shortened: as §1

NCI-H647 = tested on: NCI-H647
Procedure, shortened: as §1

PC-3 [JPC-3] = tested on: PC-3 [JPC-3]
Procedure, shortened: as §1

RERF-LC-KJ = tested on: RERF-LC-KJ
Procedure, shortened: as §1

SK-LU-1 = tested on: SK-LU-1
Procedure, shortened: as §1

SW 1573 = tested on: SW 1573
Procedure, shortened: as §1

SMILES: C[C@@H]1CN(CC(=O)Nc2ccc3c(c2)Cc2cccc(-c4cc(=O)cc(N5CCOCC5)o4)c2S3)C[C@H](C)O1 + CC1(C)CCC(c2ccc(Cl)cc2)=C(CN2CCN(c3ccc(C(=O)NS(=O)(=O)c4ccc(N[C@H](CCN5CCOCC5)CSc5ccccc5)c(S(=O)(=O)C(F)(F)F)c4)cc3)CC2)C1 [Navitoclax] (partner 0.5 µM)
- relative viability (A-427; first compound 0.04 µM): 0.988
- relative viability (A-427; first compound 0.1265 µM): 0.982
- relative viability (A-427; first compound 0.4 µM): 0.983
- relative viability (A-427; first compound 4 µM): 0.967
- relative viability (HCC-15; first compound 0.04 µM): 0.7
- relative viability (HCC-15; first compound 0.1265 µM): 0.639
- relative viability (HCC-15; first compound 0.4 µM): 0.682
- relative viability (HCC-15; first compound 4 µM): 0.556
- relative viability (HCC-78; first compound 0.04 µM): 0.668
- relative viability (HCC-78; first compound 0.1265 µM): 0.706
- relative viability (HCC-78; first compound 0.4 µM): 0.69
- relative viability (HCC-78; first compound 4 µM): 0.914
- relative viability (HOP-62; first compound 0.04 µM): 0.879
- relative viability (HOP-62; first compound 0.1265 µM): 0.979
- relative viability (HOP-62; first compound 0.4 µM): 1.14
- relative viability (HOP-62; first compound 4 µM): 1.01
- relative viability (LC-2-ad; first compound 0.04 µM): 0.587
- relative viability (LC-2-ad; first compound 0.1265 µM): 0.46
- relative viability (LC-2-ad; first compound 0.4 µM): 0.336
- relative viability (LC-2-ad; first compound 4 µM): 0.29
- relative viability (LOU-NH91; first compound 0.04 µM): 0.701
- relative viability (LOU-NH91; first compound 0.1265 µM): 0.617
- relative viability (LOU-NH91; first compound 0.4 µM): 0.702
- relative viability (LOU-NH91; first compound 4 µM): 0.66
- relative viability (LXF-289; first compound 0.04 µM): 0.941
- relative viability (LXF-289; first compound 0.1265 µM): 0.929
- relative viability (LXF-289; first compound 0.4 µM): 1
- relative viability (LXF-289; first compound 4 µM): 0.913
- relative viability (NCI-H1734; first compound 0.04 µM): 0.783
- relative viability (NCI-H1734; first compound 0.1265 µM): 0.886
- relative viability (NCI-H1734; first compound 0.4 µM): 0.808
- relative viability (NCI-H1734; first compound 4 µM): 0.923
- relative viability (NCI-H1755; first compound 0.04 µM): 1.02
- relative viability (NCI-H1755; first compound 0.1265 µM): 0.945
- relative viability (NCI-H1755; first compound 0.4 µM): 0.924
- relative viability (NCI-H1755; first compound 4 µM): 0.92
- relative viability (NCI-H1792; first compound 0.04 µM): 0.593
- relative viability (NCI-H1792; first compound 0.1265 µM): 0.597
- relative viability (NCI-H1792; first compound 0.4 µM): 0.632
- relative viability (NCI-H1792; first compound 4 µM): 0.597
- relative viability (NCI-H1915; first compound 0.04 µM): 0.792
- relative viability (NCI-H1915; first compound 0.1265 µM): 0.789
- relative viability (NCI-H1915; first compound 0.4 µM): 0.796
- relative viability (NCI-H1915; first compound 4 µM): 0.753
- relative viability (NCI-H1975; first compound 0.04 µM): 1.33
- relative viability (NCI-H1975; first compound 0.1265 µM): 1.06
- relative viability (NCI-H1975; first compound 0.4 µM): 1.02
- relative viability (NCI-H1975; first compound 4 µM): 0.846
- relative viability (NCI-H2126; first compound 0.04 µM): 0.879
- relative viability (NCI-H2126; first compound 0.1265 µM): 0.868
- relative viability (NCI-H2126; first compound 0.4 µM): 0.808
- relative viability (NCI-H2126; first compound 4 µM): 0.851
- relative viability (NCI-H2228; first compound 0.04 µM): 1.02
- relative viability (NCI-H2228; first compound 0.1265 µM): 1.11
- relative viability (NCI-H2228; first compound 0.4 µM): 0.639
- relative viability (NCI-H2228; first compound 4 µM): 0.753
- relative viability (NCI-H2347; first compound 0.04 µM): 0.768
- relative viability (NCI-H2347; first compound 0.1265 µM): 0.81
- relative viability (NCI-H2347; first compound 0.4 µM): 0.769
- relative viability (NCI-H2347; first compound 4 µM): 0.672
- relative viability (NCI-H460; first compound 0.04 µM): 1.07
- relative viability (NCI-H460; first compound 0.1265 µM): 1.17
- relative viability (NCI-H460; first compound 0.4 µM): 1.22
- relative viability (NCI-H460; first compound 4 µM): 0.955
- relative viability (NCI-H647; first compound 0.04 µM): 0.989
- relative viability (NCI-H647; first compound 0.1265 µM): 1.09
- relative viability (NCI-H647; first compound 0.4 µM): 1.09
- relative viability (NCI-H647; first compound 4 µM): 0.591
- relative viability (PC-3 [JPC-3]; first compound 0.04 µM): 0.875
- relative viability (PC-3 [JPC-3]; first compound 0.1265 µM): 0.795
- relative viability (PC-3 [JPC-3]; first compound 0.4 µM): 0.836
- relative viability (PC-3 [JPC-3]; first compound 4 µM): 0.835
- relative viability (RERF-LC-KJ; first compound 0.04 µM): 0.736
- relative viability (RERF-LC-KJ; first compound 0.1265 µM): 1.12
- relative viability (RERF-LC-KJ; first compound 0.4 µM): 1.16
- relative viability (RERF-LC-KJ; first compound 4 µM): 0.713
- relative viability (SK-LU-1; first compound 0.04 µM): 0.761
- relative viability (SK-LU-1; first compound 0.1265 µM): 0.969
- relative viability (SK-LU-1; first compound 0.4 µM): 0.956
- relative viability (SK-LU-1; first compound 4 µM): 0.637
- relative viability (SW 1573; first compound 0.04 µM): 0.979
- relative viability (SW 1573; first compound 0.1265 µM): 1.05
- relative viability (SW 1573; first compound 0.4 µM): 0.846
- relative viability (SW 1573; first compound 4 µM): 0.842

SMILES: CC(C)Oc1cc(Nc2nc(N[C@@H](C)c3ccc(F)cn3)ncc2Cl)n[nH]1 [AZ23] + CC(C)C[C@H](NC(=O)[C@H](Cc1ccccc1)NC(=O)c1cnccn1)B(O)O [Bortezomib] (partner 0.002 µM)
- relative viability (A-427; first compound 0.01 µM): 1.07
- relative viability (A-427; first compound 0.03162 µM): 1.11
- relative viability (A-427; first compound 0.3162 µM): 0.969
- relative viability (HCC-15; first compound 0.01 µM): 1.38
- relative viability (HCC-15; first compound 0.03162 µM): 1.09
- relative viability (HCC-15; first compound 0.3162 µM): 1.16
- relative viability (HCC-78; first compound 0.01 µM): 0.395
- relative viability (HCC-78; first compound 0.03162 µM): 0.507
- relative viability (HCC-78; first compound 0.3162 µM): 0.335
- relative viability (HOP-62; first compound 0.01 µM): 0.821
- relative viability (HOP-62; first compound 0.03162 µM): 0.517
- relative viability (HOP-62; first compound 0.3162 µM): 0.867
- relative viability (LC-2-ad; first compound 0.01 µM): 1.16
- relative viability (LC-2-ad; first compound 0.03162 µM): 1.2
- relative viability (LC-2-ad; first compound 0.3162 µM): 1.01
- relative viability (LOU-NH91; first compound 0.01 µM): 0.535
- relative viability (LOU-NH91; first compound 0.03162 µM): 0.546
- relative viability (LOU-NH91; first compound 0.3162 µM): 0.519
- relative viability (LXF-289; first compound 0.01 µM): 1.11
- relative viability (LXF-289; first compound 0.03162 µM): 1.05
- relative viability (LXF-289; first compound 0.3162 µM): 0.979
- relative viability (NCI-H1734; first compound 0.01 µM): 1.02
- relative viability (NCI-H1734; first compound 0.03162 µM): 1.37
- relative viability (NCI-H1734; first compound 0.3162 µM): 1.01
- relative viability (NCI-H1755; first compound 0.01 µM): 1.16
- relative viability (NCI-H1755; first compound 0.03162 µM): 1.07
- relative viability (NCI-H1755; first compound 0.3162 µM): 1.03
- relative viability (NCI-H1792; first compound 0.01 µM): 1.27
- relative viability (NCI-H1792; first compound 0.03162 µM): 1.12
- relative viability (NCI-H1792; first compound 0.3162 µM): 1.06
- relative viability (NCI-H1915; first compound 0.01 µM): 1.26
- relative viability (NCI-H1915; first compound 0.03162 µM): 1.09
- relative viability (NCI-H1915; first compound 0.3162 µM): 1.05
- relative viability (NCI-H1975; first compound 0.01 µM): 0.393
- relative viability (NCI-H1975; first compound 0.03162 µM): 0.372
- relative viability (NCI-H1975; first compound 0.3162 µM): 0.375
- relative viability (NCI-H2126; first compound 0.01 µM): 1.18
- relative viability (NCI-H2126; first compound 0.03162 µM): 1.18
- relative viability (NCI-H2126; first compound 0.3162 µM): 1.09
- relative viability (NCI-H2228; first compound 0.01 µM): 1.49
- relative viability (NCI-H2228; first compound 0.03162 µM): 1.19
- relative viability (NCI-H2228; first compound 0.3162 µM): 0.84
- relative viability (NCI-H2347; first compound 0.01 µM): 0.927
- relative viability (NCI-H2347; first compound 0.03162 µM): 1.04
- relative viability (NCI-H2347; first compound 0.3162 µM): 0.979
- relative viability (NCI-H460; first compound 0.01 µM): 0.915
- relative viability (NCI-H460; first compound 0.03162 µM): 1.47
- relative viability (NCI-H460; first compound 0.3162 µM): 1.38
- relative viability (NCI-H647; first compound 0.01 µM): 1.41
- relative viability (NCI-H647; first compound 0.03162 µM): 1.16
- relative viability (NCI-H647; first compound 0.3162 µM): 1.12
- relative viability (PC-3 [JPC-3]; first compound 0.01 µM): 0.893
- relative viability (PC-3 [JPC-3]; first compound 0.03162 µM): 1.01
- relative viability (PC-3 [JPC-3]; first compound 0.3162 µM): 0.887
- relative viability (RERF-LC-KJ; first compound 0.01 µM): 1.23
- relative viability (RERF-LC-KJ; first compound 0.03162 µM): 1.31
- relative viability (RERF-LC-KJ; first compound 0.3162 µM): 1.17
- relative viability (SK-LU-1; first compound 0.03162 µM): 1.33
- relative viability (SK-LU-1; first compound 0.3162 µM): 1.26
- relative viability (SW 1573; first compound 0.01 µM): 1.24
- relative viability (SW 1573; first compound 0.03162 µM): 1.2
- relative viability (SW 1573; first compound 0.3162 µM): 1
